Measurements reported in patent US20050287600A1, “Method for screening for agents preventing aggregation of potentially amyloidogenic proteins” (priority 2002, published 2005).

Biological target: T1, human ataxin-3 (Q36) (Homo sapiens, UniProt P54252, INS305QQQQQQQQQQQQQQQQQQQQQQQQQQ)
T1 construct: glutathione S-transferase (GST), PreScission Protease site (N, cleaved yes); made in house; host or cells: Escherichia coli BL21 codon plus RIL (plasmid pGEX6P-1)
Test: Heat-induced amyloid fibre formation / aggregation screening assay
Type: biochemical
Settings: 10 microM Congo red; ataxin-3 (Q36) about 0.1 mg/ml in 10 mM sodium phosphate, pH 7.0, incubated at growing temperatures
Experimental: The screening procedure encompasses a) mixing the protein of interest with the compound to be assayed for its ability to prevent aggregation b) gradually increasing the temperature c) detecting the appearance of amyloid fibres by turbidimetric measurements, and/or by visual inspection of the mixture, and/or by determining its protein content before and after spinning down the aggregated protein. In the control sample, no compound is added so heating results in amyloid fibre formation and ensuing protein precipitation and clouding of the solution. In contrast, a compound capable of preventing aggregation also prevents or reduces clouding, along with protein precipitation on centrifugation. Protein concentration is typically about 0.1 mg per ml. Human ataxin-3 (Q36) was dissolved in 10 mM sodium phosphate, pH 7.0 at a final concentration of about 0.1 mg/ml and incubated at growing temperatures. […] Congo red is a well-known antiamyloidogenic compound. On incubating human ataxin-3 (Q36) in the presence of 10 microM Congo red and otherwise under the conditions depicted in example 3, protein aggregation phenomena observed in the absence of the dye were prevented.

T1 sequence (P54252 with tags, fused parts or gaps with the stated changes): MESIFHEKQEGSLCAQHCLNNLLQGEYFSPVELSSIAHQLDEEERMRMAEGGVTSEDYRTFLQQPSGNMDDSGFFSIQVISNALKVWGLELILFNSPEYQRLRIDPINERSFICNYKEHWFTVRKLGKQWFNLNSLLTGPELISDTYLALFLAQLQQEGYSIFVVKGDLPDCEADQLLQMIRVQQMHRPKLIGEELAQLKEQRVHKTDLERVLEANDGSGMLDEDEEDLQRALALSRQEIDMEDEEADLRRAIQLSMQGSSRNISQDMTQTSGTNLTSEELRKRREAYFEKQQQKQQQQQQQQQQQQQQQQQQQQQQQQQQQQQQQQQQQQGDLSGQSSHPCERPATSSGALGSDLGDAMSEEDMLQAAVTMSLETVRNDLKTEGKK

SMILES: Nc1c(/N=N/c2ccc(-c3ccc(/N=N/c4cc(S(=O)(=O)O)c5ccccc5c4N)cc3)cc2)cc(S(=O)(=O)O)c2ccccc12 [Congo red]
- protein aggregation (amyloid fibre formation) on heating: prevented
